These are literature values, as cited in publication PMC7114426 (Virus Research, 2012).

This data set relates to nsp16.

Each structure is given as a SMILES string.

Turning to `O=C(O)C1=CC(=C(c2ccc(O)c(C(=O)O)c2)c2ccc(O)c(C(=O)O)c2)C=CC1=O` [ATA, aurintricarboxylic acid], the “inhibition of the MTase activity of nsp16” value (from here on “inhibition”) is listed as “inhibit the MTase activity of nsp16”. For `Nc1ncnc2c1ncn2[C@@H]1O[C@H](CSCC[C@H](N)C(=O)O)[C@@H](O)[C@H]1O` [SAH, S-adenosyl-l-homocysteine], the “inhibition” value is on record as “inhibit the MTase activity of nsp16”. Consider `Nc1ncnc2c1ncn2[C@@H]1O[C@H](C[C@@H](N)CC[C@H](N)C(=O)O)[C@@H](O)[C@H]1O` [sinefungin], for which the “inhibition” value is “inhibit the MTase activity of nsp16”.
